Measured values: patent US7060792B2, “Protection against ischemia and reperfusion injury” (University of Kentucky Research Foundation, priority 2000, dated 2006)
Square brackets hold non-standard residues; d marks the D form. Peptide text beside a SMILES is read from it.

Test: Solubility in water or saline
Type: physicochemical
From the text: One of the compounds is a heptapeptide having the sequence Tyr-D-Met-Phe-His-Leu-Met-Asp-NH2 SEQ ID NO:1, hereinafter referred to as deltorphin A. Another of the compounds is a thirteen amino acid sequence Tyr-D-Ala-Phe-Gly-Tyr-Pro-Ser-Gly-Glu-Ala-Lys-Lys-Ile SEQ ID NO:2. The peptides may be produced by a number of methods, such as using an automated peptide synthesizer, through recombinant molecular techniques, or isolated from a naturally occurring source, as is known to one skilled in the art. Deltorphin A SEQ ID NO:1 has a molecular weight of 955.1 daltons, and Dermorphin H SEQ ID NO:2 has a molecular weight of about 1430.64 daltons. […] The initial alkaline pH is adjusted to 7.4 with 1 N HCl.

Row | SMILES | solubility
1 | CSCC[C@H](NC(=O)[C@H](CC(C)C)NC(=O)[C@H](Cc1cnc[nH]1)NC(=O)[C@H](Cc1ccccc1)NC(=O)[C@@H](CCSC)NC(=O)[C@@H](N)Cc1ccc(O)cc1)C(=O)N[C@@H](CC(=O)O)C(N)=O [Deltorphin A, Tyr-D-Met-Phe-His-Leu-Met-Asp-NH2] (H-Y[dM]FHLMD-NH2) | insoluble in water or saline
2 | CC[C@H](C)[C@H](NC(=O)[C@H](CCCCN)NC(=O)[C@H](CCCCN)NC(=O)[C@H](C)NC(=O)[C@H](CCC(=O)O)NC(=O)CNC(=O)[C@H](CO)NC(=O)[C@@H]1CCCN1C(=O)[C@H](Cc1ccc(O)cc1)NC(=O)CNC(=O)[C@H](Cc1ccccc1)NC(=O)[C@@H](C)NC(=O)[C@@H](N)Cc1ccc(O)cc1)C(=O)O [Dermorphin H, Tyr-D-Ala-Phe-Gly-Tyr-Pro-Ser-Gly-Glu-Ala-Lys-Lys-Ile] (H-Y[dA]FGYPSGEAKKI-OH; N-terminus and C-terminus assumed) | insoluble in water or saline
